Assay results from patent US20200023072A1, “ANTIBODY-DRUG CONJUGATES WITH IMMUNE-MEDIATED THERAPY AGENTS” (MEDIMMUNE LIMITED, priority 2016, published 2020).

Tested on: CT26 mouse colon cancer cells
Assay: In vivo vaccination/challenge mouse model with payload-treated CT26 cells
Conditions: CT26 cells treated 24 hours with tubulysin (1 uM) or PBD (10 nM), implanted in left flank of BALB/c mice; challenge with untreated CT26 cells in opposite flank 1 week later; assessed on day 65
Method: CT26 cells were treated with either […] AZD9185 (tubulysin) or […] SG3199 (PBD) for 24 hours so that the cells were committed to cell death (as assessed by lack of growth in re-plating experiments) but still >95% viable. Five-hundred thousand of these treated cells were inoculated into the left flank of BALB/c mice to test for their ability to vaccinate for subsequent right flank challenge. Controls included cells treated with 75 Gy radiation or taken through 3 freeze-thaw cycles (necrotic). Challenge on the right flank utilized 3×10^6 untreated CT26 cells 7 days later.
In order to test this, tubulysin and PBD were used in a vaccination/challenge mouse model. CT26 mouse colon cancer cells were treated with either tubulysin (1 uM) or PBD (10 nM) for a period of 24 hours (FIG. 1A). At this point in time, the cells were still viable but committed subsequent cell death.
These dying but not yet dead cells were implanted subcutaneously into the left flank of BALB/c mice to test if they could vaccinate against subsequent challenge with a tumor forming dose of untreated CT26 cells in the opposite flank 1 week later. Irradiated cells were included as a positive control and necrotic cells which were taken through a freeze thaw cycle were included as a negative control.

COc1cc2c(cc1OCCCCCOc1cc3c(cc1OC)C(=O)N1C=C(C)C[C@H]1C=N3)N=C[C@@H]1CC(C)=CN1C2=O [PBD]
mice protected from tumor formation: 70%

CC[C@H](C)[C@H](NC(=O)[C@H]1CCCCN1C)C(=O)N(COC(=O)CC(C)C)[C@H](C[C@@H](OC(C)=O)c1nc(C(=O)N[C@@H](Cc2ccc(C)cc2)C[C@H](C)C(=O)O)cs1)C(C)C [Tubulysin]
mice protected from tumor formation: 40%
